From ChEMBL document CHEMBL1145540, “Zidovudine inhibits thymidine phosphorylation in the isolated perfused rat heart” (Antimicrob Agents Chemother, 2007)

Tested on: Heart
Assay: Inhibition of [3H]thymidine phosphorylation in isolated perfused Sprague-Dawley rat heart after 30 mins
Type: functional, tissue-based

## Cc1cn([C@H]2C[C@H](N=[N+]=[N-])[C@@H](CO)O2)c(=O)[nH]c1=O [ZIDOVUDINE]
  IC50: 24.4 µM
